Experimental data as given in US10780090B2, “Heteroaryl compounds useful as inhibitors of SUMO activating enzyme” (Millennium Pharmaceuticals, Inc., priority 2014, dated 2020).

Target: recombinant human SAE enzyme (Homo sapiens (Human), UniProt Q9UBT2)
Test: SAE HTRF enzyme assay
Format: biochemical
Procedure, shortened: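 HTRF read-out using Eu-cryptate anti-Flag and allophycocyanin anti-GST antibodies, added with EDTA stop buffer and read after 2 h at 24 °C. The preceding reaction ran 105 min at 24 °C: 0.11 nM recombinant SAE, 0.5 μM ATP, Sumo-Flag, Ubc9-GST, pH 7.5. Values given as single-concentration inhibition or IC50.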

[1] = SAE inhibition at compound concentration 0.111 μM
[2] = SAE inhibition, class symbols, legend in nM

Sequence of recombinant human SAE enzyme (Q9UBT2 whole entry): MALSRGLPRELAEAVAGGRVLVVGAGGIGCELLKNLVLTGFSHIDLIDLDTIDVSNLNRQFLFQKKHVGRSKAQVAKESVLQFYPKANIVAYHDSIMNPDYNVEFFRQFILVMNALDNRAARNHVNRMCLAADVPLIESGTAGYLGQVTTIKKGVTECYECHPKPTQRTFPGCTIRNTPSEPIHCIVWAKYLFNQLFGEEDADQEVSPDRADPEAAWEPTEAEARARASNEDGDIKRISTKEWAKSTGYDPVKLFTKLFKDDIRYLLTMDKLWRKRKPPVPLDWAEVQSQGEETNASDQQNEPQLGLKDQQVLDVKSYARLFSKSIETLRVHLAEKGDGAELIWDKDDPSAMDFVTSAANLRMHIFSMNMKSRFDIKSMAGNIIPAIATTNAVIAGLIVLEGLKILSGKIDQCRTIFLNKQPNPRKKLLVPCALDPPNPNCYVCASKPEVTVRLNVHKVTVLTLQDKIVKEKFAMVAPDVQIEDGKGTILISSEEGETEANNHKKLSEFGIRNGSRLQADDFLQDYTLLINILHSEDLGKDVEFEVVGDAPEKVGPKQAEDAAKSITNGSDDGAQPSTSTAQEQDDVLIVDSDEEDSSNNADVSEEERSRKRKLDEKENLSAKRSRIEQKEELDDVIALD
Sequence of recombinant human SAE enzyme (Q9UBE0 whole entry partner): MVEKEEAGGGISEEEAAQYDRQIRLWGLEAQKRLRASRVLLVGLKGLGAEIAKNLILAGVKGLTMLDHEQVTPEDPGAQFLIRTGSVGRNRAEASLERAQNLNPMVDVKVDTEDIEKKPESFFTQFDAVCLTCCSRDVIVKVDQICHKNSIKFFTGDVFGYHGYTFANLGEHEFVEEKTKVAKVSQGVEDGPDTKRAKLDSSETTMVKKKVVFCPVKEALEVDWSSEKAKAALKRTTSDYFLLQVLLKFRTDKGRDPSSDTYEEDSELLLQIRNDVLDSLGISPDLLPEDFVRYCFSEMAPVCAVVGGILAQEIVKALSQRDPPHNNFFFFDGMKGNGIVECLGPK

Question: Which “Percent Inhibition” value (Concentration 0.111 μM) does the source give for `NS(=O)(=O)OC[C@H]1C[C@@H](Nc2ncncc2C(=O)c2cc([C@@H]3NCCc4ccc(Cl)cc43)cs2)C[C@@H]1O` (mixture of isomers) [I-274, [(1R,2S,4R)-4-{[5-({4-[(1R)-7-chloro-1,2,3,4-tetrahydroisoquinolin-1-yl]-2-thienyl}carbonyl)pyrimidin-4-yl]amino}-2-hydroxycyclopentyl]methyl sulfamate and [(1R,2S,4R)-4-{[5-({4-[(1S)-7-chloro-1,2,3,4-tetrahydroisoquinolin-1-yl]-2-thienyl}carbonyl)pyrimidin-4-yl]amino}-2-hydroxycyclopentyl]methyl sulfamate] here?
Answer: 100

Question: What about the IC50 (class symbols A/B/C) of the same compound?
Answer: < 10 nM

Question: What does the source list for `Cc1sc(C(=O)c2cncnc2N[C@@H]2C[C@H](COS(N)(=O)=O)[C@@H](O)C2)cc1[C@@H]1OCCc2sccc21` (mixture of isomers) [I-275, [(1R,2S,4R)-4-{[5-({4-[(4S)-6,7-dihydro-4H-thieno[3,2-c]pyran-4-yl]-5-methyl-2-thienyl}carbonyl)pyrimidin-4-yl]amino}-2-hydroxycyclopentyl]methyl sulfamate and [(1R,2S,4R)-4-{[5-({4-[(4R)-6,7-dihydro-4H-thieno[3,2-c]pyran-4-yl]-5-methyl-2-thienyl}carbonyl)pyrimidin-4-yl]amino}-2-hydroxycyclopentyl]methyl sulfamate]?
Answer: Percent Inhibition (Concentration 0.111 μM): 97; IC50 (class symbols A/B/C): < 10 nM

Question: With `NS(=O)(=O)OCC1CC(Nc2ncncc2C(=O)c2cc(C3OCCc4ccc(Cl)nc43)c(Cl)s2)CC1O` (mixture of isomers) [I-276, [(1R,2S,4R)-4-{[5-({5-chloro-4-[(8S)-2-chloro-5,8-dihydro-6H-pyrano[3,4-b]pyridin-8-yl]-2-thienyl}carbonyl)pyrimidin-4-yl]amino}-2-hydroxycyclopentyl]methyl sulfamate and [(1R,2S,4R)-4-{[5-({5-chloro-4-[(8R)-2-chloro-5,8-dihydro-6H-pyrano[3,4-b]pyridin-8-yl]-2-thienyl}carbonyl)pyrimidin-4-yl]amino}-2-hydroxycyclopentyl]methyl sulfamate] as the compound, how does the “Percent Inhibition” value (Concentration 0.111 μM) read?
Answer: 98

Question: What about the IC50 (class symbols A/B/C) of the same compound?
Answer: < 10 nM

Question: What does the source list for `Cc1sc(C(=O)c2cncnc2N[C@@H]2C[C@H](COS(N)(=O)=O)[C@@H](O)C2)cc1[C@@H]1OCCc2ccc(C3CC3)cc21` (mixture of isomers) [I-277, [(1R,2S,4R)-4-{[5-({4-[(1R)-7-cyclopropyl-3,4-dihydro-1H-isochromen-1-yl]-5-methyl-2-thienyl}carbonyl)pyrimidin-4-yl]amino}-2-hydroxycyclopentyl]methyl sulfamate and [(1R,2S,4R)-4-{[5-({4-[(1S)-7-cyclopropyl-3,4-dihydro-1H-isochromen-1-yl]-5-methyl-2-thienyl}carbonyl)pyrimidin-4-yl]amino}-2-hydroxycyclopentyl]methyl sulfamate]?
Answer: Percent Inhibition (Concentration 0.111 μM): 99; IC50 (class symbols A/B/C): < 10 nM

Question: With `NS(=O)(=O)OC[C@H]1C[C@@H](Nc2ncncc2C(=O)c2cc([C@@H]3SCCc4ccc(Cl)cc43)cs2)[C@H](O)[C@@H]1O` (mixture of isomers) [I-278, [(1R,2R,3S,4R)-4-{[5-({4-[(1R)-7-chloro-3,4-dihydro-1H-isothiochromen-1-yl]-2-thienyl}carbonyl)pyrimidin-4-yl]amino}-2,3-dihydroxycyclopentyl]methyl sulfamate and [(1R,2R,3S,4R)-4-{[5-({4-[(1S)-7-chloro-3,4-dihydro-1H-isothiochromen-1-yl]-2-thienyl}carbonyl)pyrimidin-4-yl]amino}-2,3-dihydroxycyclopentyl]methyl sulfamate] as the compound, how does the “Percent Inhibition” value (Concentration 0.111 μM) read?
Answer: 98

Question: What about the IC50 (class symbols A/B/C) of the same compound?
Answer: < 10 nM

Question: What does the source list for `Cc1sc(C(=O)c2cncnc2N[C@@H]2C[C@H](COS(N)(=O)=O)[C@@H](O)C2)cc1[C@H]1OCOc2ccccc21` (mixture of isomers) [I-280, [(1R,2S,4R)-4-{[5-({4-[(4R)-4H-1,3-benzodioxin-4-yl]-5-methyl-2-thienyl}carbonyl)pyrimidin-4-yl]amino}-2-hydroxycyclopentyl]methyl sulfamate and [(1R,2S,4R)-4-{[5-({4-[(4S)-4H-1,3-benzodioxin-4-yl]-5-methyl-2-thienyl}carbonyl)pyrimidin-4-yl]amino}-2-hydroxycyclopentyl]methyl sulfamate]?
Answer: Percent Inhibition [1]: 98%; IC50 [2]: < 10 nM

Question: Which results are given for `NS(=O)(=O)OC[C@H]1C[C@@H](Nc2ncncc2C(=O)c2cc([C@H]3OCC4(CC4)c4ccccc43)cs2)C[C@@H]1O` (mixture of isomers) [I-281, [(1R,2S,4R)-2-hydroxy-4-{[5-({4-[(1′R)-1′H-spiro[cyclopropane-1,4′-isochromen]-1′-yl]-2-thienyl}carbonyl)pyrimidin-4-yl]amino}cyclopentyl]methyl sulfamate and [(1R,2S,4R)-2-hydroxy-4-{[5-({4-[(1′S)-1′H-spiro[cyclopropane-1,4′-isochromen]-1′-yl]-2-thienyl}carbonyl)pyrimidin-4-yl]amino}cyclopentyl]methyl sulfamate]?
Answer: Percent Inhibition [1]: 98%; IC50 [2]: < 10 nM

Question: For `NS(=O)(=O)OCC1CC(Nc2ncncc2C(=O)c2cc(C3OCCc4ccc(Cl)cc43)c(Cl)s2)CC1O` (mixture of isomers) [I-282, [(1R,2S,4R)-4-{[5-({5-chloro-4-[(1R)-7-chloro-3,4-dihydro-1H-isochromen-1-yl]-2-thienyl}carbonyl)pyrimidin-4-yl]amino}-2-hydroxycyclopentyl]methyl sulfamate and [(1R,2S,4R)-4-{[5-({5-chloro-4-[(1S)-7-chloro-3,4-dihydro-1H-isochromen-1-yl]-2-thienyl}carbonyl)pyrimidin-4-yl]amino}-2-hydroxycyclopentyl]methyl sulfamate], which “Percent Inhibition” value [1] is on record?
Answer: 100%

Question: What about the IC50 [2] of the same compound?
Answer: < 10 nM

Question: Which “Percent Inhibition” value [1] does the source give for `Cc1sc(C(=O)c2cncnc2N[C@@H]2C[C@H](COS(N)(=O)=O)[C@@H](O)C2)cc1[C@@H]1OCCc2cccnc21` (mixture of isomers) [I-285, [(1R,2S,4R)-4-{[5-({4-[(8S)-5,8-dihydro-6H-pyrano[3,4-b]pyridin-8-yl]-5-methyl-2-thienyl}carbonyl)pyrimidin-4-yl]amino}-2-hydroxycyclopentyl]methyl sulfamate and [(1R,2S,4R)-4-{[5-({4-[(8R)-5,8-dihydro-6H-pyrano[3,4-b]pyridin-8-yl]-5-methyl-2-thienyl}carbonyl)pyrimidin-4-yl]amino}-2-hydroxycyclopentyl]methyl sulfamate] here?
Answer: 100%

Question: What about the IC50 [2] of the same compound?
Answer: < 10 nM

Question: With `Cc1sc(C(=O)c2cncnc2N[C@@H]2C[C@H](COS(N)(=O)=O)[C@@H](O)C2)cc1[C@@H]1OCCc2ccc(Cl)nc21` (mixture of isomers) [I-286, [(1R,2S,4R)-4-{[5-({4-[(8S)-2-chloro-5,8-dihydro-6H-pyrano[3,4-b]pyridin-8-yl]-5-methyl-2-thienyl}carbonyl)pyrimidin-4-yl]amino}-2-hydroxycyclopentyl]methyl sulfamate and [(1R,2S,4R)-4-{[5-({4-[(8R)-2-chloro-5,8-dihydro-6H-pyrano[3,4-b]pyridin-8-yl]-5-methyl-2-thienyl}carbonyl)pyrimidin-4-yl]amino}-2-hydroxycyclopentyl]methyl sulfamate] as the compound, how does the “Percent Inhibition” value [1] read?
Answer: 99%

Question: What about the IC50 [2] of the same compound?
Answer: < 10 nM

Question: For `Cc1nc2c(s1)CCO[C@H]2c1cc(C(=O)c2cncnc2N[C@@H]2C[C@H](COS(N)(=O)=O)[C@@H](O)C2)sc1C` (mixture of isomers) [I-287, [(1R,2S,4R)-2-hydroxy-4-{[5-({5-methyl-4-[(4S)-2-methyl-6,7-dihydro-4H-pyrano[3,4-d][1,3]thiazol-4-yl]-2-thienyl}carbonyl)pyrimidin-4-yl]amino}cyclopentyl]methyl sulfamate and [(1R,2S,4R)-2-hydroxy-4-{[5-({5-methyl-4-[(4R)-2-methyl-6,7-dihydro-4H-pyrano[3,4-d][1,3]thiazol-4-yl]-2-thienyl}carbonyl)pyrimidin-4-yl]amino}cyclopentyl]methyl sulfamate], which “Percent Inhibition” value [1] is on record?
Answer: 97%

Question: What about the IC50 [2] of the same compound?
Answer: < 10 nM

Question: With `Cc1sc(C(=O)c2cncnc2N[C@@H]2C[C@H](COS(N)(=O)=O)[C@@H](O)C2)cc1[C@@H]1OCC(F)(F)c2ccc(Cl)cc21.Cc1sc(C(=O)c2cncnc2N[C@@H]2C[C@H](COS(N)(=O)=O)[C@@H](O)C2)cc1[C@H]1OCC(F)(F)c2ccc(Cl)cc21` (mixture of isomers) [I-288, [(1R,2S,4R)-4-{[5-({4-[(1R)-7-chloro-4,4-difluoro-3,4-dihydro-1H-isochromen-1-yl]-5-methyl-2-thienyl}carbonyl)pyrimidin-4-yl]amino}-2-hydroxycyclopentyl]methyl sulfamate and [(1R,2S,4R)-4-{[5-({4-[(1S)-7-chloro-4,4-difluoro-3,4-dihydro-1H-isochromen-1-yl]-5-methyl-2-thienyl}carbonyl)pyrimidin-4-yl]amino}-2-hydroxycyclopentyl]methyl sulfamate] as the compound, how does the “Percent Inhibition” value [1] read?
Answer: 99%

Question: And the IC50 [2]?
Answer: < 10 nM

Question: Which “Percent Inhibition” value [1] does the source give for `NS(=O)(=O)OC[C@H]1C[C@@H](Nc2ncncc2C(=O)c2cc([C@@H]3OCC(F)(F)c4ccc(Cl)cc43)cs2)C[C@@H]1O.NS(=O)(=O)OC[C@H]1C[C@@H](Nc2ncncc2C(=O)c2cc([C@H]3OCC(F)(F)c4ccc(Cl)cc43)cs2)C[C@@H]1O` (mixture of isomers) [I-289, [(1R,2S,4R)-4-{[5-({4-[(1R)-7-chloro-4,4-difluoro-3,4-dihydro-1H-isochromen-1-yl]-2-thienyl}carbonyl)pyrimidin-4-yl]amino}-2-hydroxycyclopentyl]methyl sulfamate and [(1R,2S,4R)-4-{[5-({4-[(1S)-7-chloro-4,4-difluoro-3,4-dihydro-1H-isochromen-1-yl]-2-thienyl}carbonyl)pyrimidin-4-yl]amino}-2-hydroxycyclopentyl]methyl sulfamate] here?
Answer: 98%

Question: What about the IC50 [2] of the same compound?
Answer: < 10 nM
